The text below walks through data of paper PMC3214651 (Antiviral research, 2009).

One data set has as its target WNV NTPase (NS3) (West Nile virus, UniProt Q9Q6P4). The data set is described as follows: NTPase assay. It is filed as biochemical. Particulars: 1 µM, control compound.
The next data set concerns WNV. The note with it: ref Zou et al., 2008; cited from earlier work.
The next data set concerns the target WNV protease (NS2b-NS3) (West Nile virus, UniProt Q9Q6P4). The data set is described as follows: Protease assay. The note with it: 25 µM, control compound.

pEC50: −log10 of the molar value. Bounds are passed on as bounds.

Regarding `Nc1nc2c(ncn2[C@@H]2O[C@H](COP(=O)(O)OP(=O)(O)OP(=O)(O)O)[C@@H](O)[C@H]2O)c(=O)[nH]1` [nonradioactive GTP, GTP], at WNV NTPase (NS3), the “suppression of NTPase activity” value is given as > 85%.

The pEC50 is the negative decadic logarithm of the EC50, by convention in mol/L. As for `O[C@H]1[C@H]2c3cc4c(cc3CN3CCC(=C[C@@H]1O)[C@H]23)OCO4` [lycorine], in the data set with WNV, the pEC50 was 6.64 and the TI is recorded as 104.

aprotinin: the “suppression of protease activity” value with WNV protease (NS2b-NS3) is recorded as > 85%.
